Data: ChEMBL document CHEMBL1124833, “Topically active carbonic anhydrase inhibitors. 3. Benzofuran- and indole-2-sulfonamides” (J Med Chem, 1990)
pIC50: −log10 of the molar value. In brackets after ≈: the same amount, converted by molar mass.

How the values were obtained:
[1] = Solubility; type: physicochemical; conditions: read-out: S
Cavia porcellus [2] = organism: Cavia porcellus; assay: Number of animals showing dermal sensitization/ number of animals tested in Magnusson-Kligman assay.; type: functional
Oryctolagus cuniculus [3] = assay: In vivo intraocular pressure reduction was determined in rabbits after effective topical dose (duration expressed as number of time points, P<=0.05); type: functional, Eye
Oryctolagus cuniculus [4] = assay: METD(minimum effective topical dose of the compound) for ocular hypotensive activity in alpha-CT-rabbits; type: functional, Eye
[5] = Extent of reaction with 20 equiv of reduced glutathione (GSH) in 20 hours at pH 7.4 and 37 degree C
[6] = Extent of reaction with 5 equiv of reduced glutathione (GSH) between 16 and 22 hours at pH 7.4 and 37 degree C
Carbonic anhydrase 2 = Carbonic anhydrase 2 (Homo sapiens, UniProt P00918)
Description: In vitro inhibition of human carbonic anhydrase II (0.1 nM).

Cavia porcellus [7] = organism: Cavia porcellus; assay: Number of animals showing dermal sensitization/ number of animals tested in Magnusson-Kligman assay; 15/40; type: functional
Cavia porcellus [8] = organism: Cavia porcellus; assay: Number of animals showing dermal sensitization/ number of animals tested in Magnusson-Kligman assay; 8/19; type: functional

| SMILES | solubility [1] | GSH [5] | GSH [6] | pIC50 (Carbonic anhydrase 2) | No. of animals (Cavia porcellus [2]) | Max IOP reduction (Oryctolagus cuniculus [3]) | METD (Oryctolagus cuniculus [4]) | No. of animals (Cavia porcellus [7]) | No. of animals (Cavia porcellus [8]) |
| --- | --- | --- | --- | --- | --- | --- | --- | --- | --- |
| CC(C)(C)C(=O)Oc1ccc2cc(S(N)(=O)=O)oc2c1 |  |  |  |  |  | -5.3 mmHg | 0.5% |  |  |
| Nc1ccc2oc(S(N)(=O)=O)cc2c1 | 280 µg/mL (≈ 1320 µM) |  | 11% | 8.05 |  | -6 mmHg | 0.5% |  |  |
| NS(=O)(=O)c1cc2ccc(O)cc2[nH]1 | 4800 µg/mL (≈ 22600 µM) | 17% | 2.5% | 7.52 |  | -5 mmHg | 0.5% |  |  |
| CC(=O)Oc1ccc2cc(S(N)(=O)=O)[nH]c2c1 |  |  |  | 7.49 |  |  |  |  |  |
| COc1ccc2[nH]c(S(N)(=O)=O)cc2c1 | 150 µg/mL (≈ 663 µM) |  |  | 7.80 |  |  |  |  |  |
| COc1ccc2oc(S(N)(=O)=O)cc2c1 | 540 µg/mL (≈ 2380 µM) | 10% |  | 8.29 |  |  |  |  |  |
| CC(C)(C)C(=O)Oc1ccc2oc(S(N)(=O)=O)cc2c1 |  |  | 3.4% | 8.52 |  |  |  |  |  |
| CC(=O)Oc1ccc2cc(S(N)(=O)=O)oc2c1 |  |  |  | 8.26 |  | -8.8 mmHg | 0.5% |  |  |
| Cc1c(S(N)(=O)=O)oc2cc(O)ccc12 |  | 47% |  | 6.68 |  |  |  |  |  |
| CC(=O)Oc1ccc2cc(S(N)(=O)=O)sc2c1 |  |  |  |  |  | -5.3 mmHg | 0.1% |  |  |
| COc1ccc2cc(S(N)(=O)=O)n(C)c2c1 | 40 µg/mL (≈ 166 µM) | 37% |  | 6.96 |  |  |  |  |  |
| COc1ccc2cc(S(N)(=O)=O)oc2c1 |  |  |  | 7.82 |  |  |  |  |  |
| COc1ccc2cc(S(N)(=O)=O)n(S(=O)(=O)c3ccccc3)c2c1 |  |  |  | < 5.00 |  |  |  |  |  |
| Nc1ccc2cc(S(N)(=O)=O)oc2c1 | 80 µg/mL (≈ 377 µM) | 17% | 11% | 7.60 |  |  |  |  |  |

Now from value to compound, other results behind:

| solubility [1] | GSH [5] | GSH [6] | pIC50 (Carbonic anhydrase 2) | SMILES | No. of animals (Cavia porcellus [2]) | Max IOP reduction (Oryctolagus cuniculus [3]) | METD (Oryctolagus cuniculus [4]) | No. of animals (Cavia porcellus [7]) | No. of animals (Cavia porcellus [8]) |
| --- | --- | --- | --- | --- | --- | --- | --- | --- | --- |
| 430 µg/mL (≈ 1880 µM) | 2.9% | 0% |  | NS(=O)(=O)c1cc2ccc(O)cc2s1 | 0 | -5.5 mmHg | 0.05% |  |  |
| 520 µg/mL (≈ 2300 µM) |  |  | 7.22 | COc1ccc2cc(S(N)(=O)=O)[nH]c2c1 |  |  |  |  |  |
| 850 µg/mL (≈ 4330 µM) |  | 0% | 7.35 | NS(=O)(=O)c1cc2ccccc2[nH]1 |  |  |  |  |  |
| 1900 µg/mL (≈ 8950 µM) | 13% | 0.7% | 7.66 | NS(=O)(=O)c1cc2cc(O)ccc2[nH]1 | 19 | -7.5 mmHg | 0.1% |  |  |
| 190 µg/mL (≈ 744 µM) |  |  | 8.19 | CC(=O)Oc1ccc2oc(S(N)(=O)=O)cc2c1 |  | -5.7 mmHg |  |  |  |
| 2100 µg/mL (≈ 9850 µM) | 9% | 4% | 8.19 | NS(=O)(=O)c1cc2cc(O)ccc2o1 |  | -6 mmHg | 0.1% | 15 |  |
| 480 µg/mL (≈ 2430 µM) | 10% | 0% | 8.10 | NS(=O)(=O)c1cc2ccccc2o1 |  |  |  |  |  |
| 50 µg/mL (≈ 208 µM) |  |  | 7.60 | NS(=O)(=O)c1cc2cc3c(cc2[nH]1)OCO3 |  |  |  |  |  |
| 2800 µg/mL (≈ 13100 µM) | 23% | 4.9% | 7.96 | NS(=O)(=O)c1cc2ccc(O)cc2o1 |  | -5.2 mmHg | 0.5% |  | 8 |
| 220 µg/mL (≈ 865 µM) |  |  | 7.96 | CC(=O)Oc1ccc2[nH]c(S(N)(=O)=O)cc2c1 |  |  |  |  |  |
